Source: ChEMBL document CHEMBL1641483, “Biological study of a somatostatin mimetic based on the 1-deoxynojrimycin scaffold” (Bioorg Med Chem Lett, 2011)
pIC50, pKi: −log10 of the molar value. Calls of active or inactive are those of the source. No cut-off for these calls is given here.

Assays:
[1] = tested on: HUVEC; test: Induction of apoptosis in HUVEC assessed as change in mitochondrial membrane potential at 10 to 20 uM after 48 hrs by JC1 staining; type: functional, cell-based; conditions: Homo sapiens
[2] = tested on: HUVEC; test: Induction of apoptosis in HUVEC at 10 to 20 uM after 48 hrs by fluorescence assay; type: functional, cell-based; conditions: Homo sapiens
[3] = target: Somatostatin receptor type 4 (Homo sapiens, UniProt P31391); test: Binding affinity to human SSTR4
Somatostatin receptor type 4, sequence (P31391 whole entry): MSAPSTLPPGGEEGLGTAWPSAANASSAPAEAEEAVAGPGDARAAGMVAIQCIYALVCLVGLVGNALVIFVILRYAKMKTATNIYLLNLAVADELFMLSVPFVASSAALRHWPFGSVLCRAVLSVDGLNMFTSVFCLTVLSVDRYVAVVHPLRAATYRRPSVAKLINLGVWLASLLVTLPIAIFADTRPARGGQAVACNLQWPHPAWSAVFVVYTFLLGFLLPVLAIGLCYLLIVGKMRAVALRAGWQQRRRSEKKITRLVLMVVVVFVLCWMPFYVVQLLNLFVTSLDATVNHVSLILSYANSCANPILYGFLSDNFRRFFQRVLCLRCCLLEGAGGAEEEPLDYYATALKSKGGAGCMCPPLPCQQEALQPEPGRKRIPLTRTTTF

[4] = tested on: HUVEC; test: Induction of cell cycle arrest in HUVEC assessed as accumulation at G1 phase at 20 uM after 24 hrs by flow cytometry; type: functional, Homo sapiens
[5] = tested on: HUVEC; test: Inhibition of HUVEC migration at 20 uM by scratch-wound healing assay; type: functional, cell-based; conditions: Homo sapiens
[6] = target: Tubulin (Homo sapiens) (UniProt P68371+Q9H4B7+P0DPH7+P68366+Q13509+Q71U36+P04350+Q3ZCM7+P07437+P68363+Q9BQE3+Q6PEY2+Q13885+Q9BVA1+Q9BUF5); test: Inhibition of tubulin polymerization in HUVEC at 20 uM by fluorescence staining; type: cell-based
[7] = target: Somatostatin receptor type 5 (Homo sapiens, UniProt P35346); test: Binding affinity to human SSTR5
Somatostatin receptor type 5, sequence (P35346 whole entry): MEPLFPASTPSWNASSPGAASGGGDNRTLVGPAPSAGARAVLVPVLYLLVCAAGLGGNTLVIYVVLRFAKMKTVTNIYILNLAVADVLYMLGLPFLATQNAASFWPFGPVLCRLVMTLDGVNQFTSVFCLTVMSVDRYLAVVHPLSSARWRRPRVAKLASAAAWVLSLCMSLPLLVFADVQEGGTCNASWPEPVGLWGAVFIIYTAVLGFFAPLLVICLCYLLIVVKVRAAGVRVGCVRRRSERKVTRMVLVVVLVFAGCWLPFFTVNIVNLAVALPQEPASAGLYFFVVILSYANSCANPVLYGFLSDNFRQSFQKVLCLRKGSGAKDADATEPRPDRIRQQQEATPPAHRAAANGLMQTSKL

[8] = tested on: HUVEC; test: Cytotoxicity against HUVEC after 72 hrs by MTT assay; type: cell-based; conditions: Homo sapiens
[9] = tested on: HUVEC; test: Induction of cell cycle arrest in HUVEC assessed as accumulation at S phase at 20 uM after 24 hrs by flow cytometry; type: functional, Homo sapiens
[10] = tested on: HUVEC; test: Induction of cell cycle arrest in HUVEC assessed as accumulation at G2/M phase at 20 uM after 24 hrs by flow cytometry; type: functional, Homo sapiens
[11] = tested on: HUVEC; test: Antiangiogenic activity in HUVEC assessed as partial inhibition of tube formation at 20 uM; type: functional, cell-based; conditions: Homo sapiens
[12] = tested on: HUVEC; test: Antiangiogenic activity in HUVEC assessed as complete inhibition of tube formation at 40 uM; type: functional, cell-based; conditions: Homo sapiens

NCCCCCOC[C@@H]1[C@@H](OCc2ccccc2)[C@H](OCc2ccccc2)[C@@H](OCc2ccccc2)CN1CCc1c[nH]c2ccccc12
Activity [1]: Active
Activity [2]: Active
pKi [3]: 5.36
Activity [4]: 70.39%
inhibition [5]: Active
inhibition [6]: Active
pKi [7]: 5.30
pIC50 [8]: 4.90
Activity [9]: 13.81%
Activity [10]: 16.27%
inhibition [11]: Active
inhibition [12]: Active
